Test results: PubChem BioAssay (NCI)
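Each compound was tested at five concentrations against cells in 96-well plates for 48 hours. TGI marks complete inhibition of growth.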

Key:
Experiment in all cases: NCI anticancer screen, dose series, 48 h
OVCAR-4 ovarian = system: OVCAR-4 ovarian
HT29 colon = system: HT29 colon
SN12C renal = system: SN12C renal
TK-10 renal = system: TK-10 renal
UO-31 renal = system: UO-31 renal
A498 renal = system: A498 renal
NCI/ADR-RES ovarian = system: NCI/ADR-RES ovarian
SNB-19 CNS = system: SNB-19 CNS
SK-MEL-5 melanoma = system: SK-MEL-5 melanoma
SK-MEL-28 melanoma = system: SK-MEL-28 melanoma

Row | SMILES | TGI (OVCAR-4 ovarian) | TGI (HT29 colon) | TGI (SN12C renal) | TGI (TK-10 renal) | TGI (UO-31 renal) | TGI (A498 renal) | TGI (NCI/ADR-RES ovarian) | TGI (SNB-19 CNS) | TGI (SK-MEL-5 melanoma) | TGI (SK-MEL-28 melanoma)
1 | CCCCCCCCCC(=O)N[C@@H](c1ccco1)[C@@H](O)C(=O)O[C@H]1C[C@@]2(O)[C@@H](OC(=O)c3ccccc3)[C@@H]3[C@]4(OC(C)=O)CO[C@@H]4C[C@H](O)[C@@]3(C)C(=O)[C@H](OC(C)=O)C(=C1C)C2(C)C | > 24.7 µM | 7.1 µM | 11.4 µM | 9.22 µM | 12.7 µM | 10.3 µM | 20.5 µM | > 30.5 µM | 2.25 µM | 14.8 µM
2 | OCC(CCc1ccccc1I)C1=CCC2(CC1)OCCO2 (stereo not drawn) | 69.9 µM | 41.6 µM |  | 50.7 µM | 41.1 µM | 55.9 µM | 48 µM | 37.7 µM | 27.8 µM | 35 µM
3 | Cc1nc2n(c1/C=C1/C(=O)Nc3ccccc31)CCS2 | > 100 µM | > 100 µM | > 100 µM | > 100 µM | > 100 µM | > 100 µM | > 100 µM | > 100 µM | > 100 µM | > 100 µM
4 | CN1N=C(c2ccncc2)OC1c1cccc(C(F)(F)F)c1 (stereo not drawn) | > 100 µM | > 100 µM | > 100 µM | > 100 µM | > 100 µM | > 100 µM | > 100 µM | > 100 µM | > 100 µM | > 100 µM
5 | O=C(O)CC[P+](c1ccccc1)(c1ccccc1)c1ccccc1 | > 100 µM | > 100 µM | 54.7 µM | > 100 µM | > 100 µM | > 100 µM | > 100 µM | > 100 µM | 42.2 µM | > 100 µM
6 | C=C[C@@]1(O)CCCC[C@@H]1CC(Sc1ccccc1)Sc1ccccc1 | 32.9 µM | 36.9 µM | 34.3 µM | 30.9 µM | 32.2 µM | 85 µM | 39.7 µM | 35.6 µM | 30.8 µM | 86.8 µM
7 | CC(C)=CCOc1cc(NC(=S)c2ccsc2C)ccc1Cl | > 100 µM | > 100 µM | > 100 µM | > 100 µM | > 100 µM | > 100 µM | > 100 µM | > 100 µM | > 100 µM | > 100 µM
8 | CCOC(=O)NNC(=O)NCc1ccccc1CNC(=O)NNC(=O)OCC | > 100 µM | > 100 µM | > 100 µM | > 100 µM | > 100 µM | > 100 µM | > 100 µM | > 100 µM | > 100 µM | > 100 µM
9 | Cn1c([C@H](C#N)C(=O)c2cc(O)ccc2[N+](=O)[O-])nc2ccccc21 | > 100 µM | > 100 µM | > 100 µM | > 100 µM | > 100 µM | > 100 µM | > 100 µM | > 100 µM | > 100 µM | > 100 µM
10 | Nc1nccc(NCC2(CO)CCC2)n1 |  | > 100 µM | > 100 µM | 77.4 µM | > 100 µM | > 100 µM | > 100 µM |  | > 100 µM | > 100 µM
11 | COC(=O)c1c(C)cccc1C1CN=NC12Cc1ccc(C)c(C)c1C2=O (stereo not drawn) | > 100 µM | > 100 µM | > 100 µM | > 100 µM | > 100 µM | > 100 µM | > 100 µM | > 100 µM |  | > 100 µM
12 | NC(=O)c1cc(N(CCO)CCO)c([N+](=O)[O-])cc1[N+](=O)[O-] | > 100 µM | > 100 µM | > 100 µM | > 100 µM | > 100 µM | > 100 µM | > 100 µM | > 100 µM | > 100 µM | > 100 µM
13 | Cc1ccnc2nc(N)ccc12 | > 100 µM | > 100 µM | > 100 µM | > 100 µM | > 100 µM | > 100 µM | > 100 µM | > 100 µM | > 100 µM | > 100 µM
14 | CC1(C)C(CCO)CC1n1ccc(=O)[nH]c1=O (stereo not drawn) | > 100 µM |  | > 100 µM | > 100 µM | > 100 µM | > 100 µM | > 100 µM | > 100 µM | > 100 µM | > 100 µM
15 | C[N+](C)(C)C=Nc1cccc2c1CCCC2 | > 100 µM | > 100 µM | > 100 µM | > 100 µM | > 100 µM | > 100 µM | > 100 µM | > 100 µM | > 100 µM | > 100 µM
16 | CC(C)(O)C1CC[C@]2(C)[C@H]3CC[C@@H]4[C@@]5(C)CCCC(C)(C)[C@@H]5CC[C@@]4(C)[C@]3(C)CC[C@@H]12 (stereo partly drawn) | > 100 µM | > 100 µM | > 100 µM | > 100 µM |  | > 100 µM | > 100 µM | > 100 µM | > 100 µM | > 100 µM
17 | [O-][n+]1c(CN2CCCCC2)nc2cccc3c2c1-c1ccccc1-3 | 77.4 µM | 51.8 µM | 46.1 µM | 67.5 µM | 26.3 µM | 38.3 µM | 84.6 µM | 89.4 µM | 32.1 µM | > 100 µM
18 | CCN(CC)CCCNC(=O)c1cc2cc(NC(=O)c3cc4cc([N+](=O)[O-])ccc4[nH]3)ccc2[nH]1 | > 100 µM | > 100 µM | > 100 µM | > 100 µM | > 100 µM | 75.7 µM | > 100 µM | > 100 µM | > 100 µM | > 100 µM
19 | O=S(=O)(O)c1cccc2cccc(N=Nc3c(O)ccc4ccccc34)c12 | > 100 µM | > 100 µM | > 100 µM | > 100 µM | > 100 µM | > 100 µM | > 100 µM | > 100 µM | > 100 µM | 
20 | C=C1[C@@](C)([C@@H]2CCCS2)[C@H]2C(C)=C[C@]1(C)n1c(=O)n(-c3ccccc3)c(=O)n12 | > 100 µM | > 100 µM | > 100 µM | > 100 µM | > 100 µM | > 100 µM | > 100 µM | > 100 µM | > 100 µM | > 100 µM
